Patent US8318504B2, “MRP2 efflux pathway prognostic method” (priority 2009, dated 2012)

Key:
OATP1B1 = target: T1, OATP1B1 (Homo sapiens, UniProt Q9Y6L6); test: Uptake of CLF into CHO cells expressing OATP1B1; type: cell-based; settings: 1 μmol/L CLF, 1 or 5 minutes
T1 construct: expressed in transfected cells; host or cells: CHO cells (stably transfected; Treiber et al. 2007)
T1 sequence (Q9Y6L6 1-691): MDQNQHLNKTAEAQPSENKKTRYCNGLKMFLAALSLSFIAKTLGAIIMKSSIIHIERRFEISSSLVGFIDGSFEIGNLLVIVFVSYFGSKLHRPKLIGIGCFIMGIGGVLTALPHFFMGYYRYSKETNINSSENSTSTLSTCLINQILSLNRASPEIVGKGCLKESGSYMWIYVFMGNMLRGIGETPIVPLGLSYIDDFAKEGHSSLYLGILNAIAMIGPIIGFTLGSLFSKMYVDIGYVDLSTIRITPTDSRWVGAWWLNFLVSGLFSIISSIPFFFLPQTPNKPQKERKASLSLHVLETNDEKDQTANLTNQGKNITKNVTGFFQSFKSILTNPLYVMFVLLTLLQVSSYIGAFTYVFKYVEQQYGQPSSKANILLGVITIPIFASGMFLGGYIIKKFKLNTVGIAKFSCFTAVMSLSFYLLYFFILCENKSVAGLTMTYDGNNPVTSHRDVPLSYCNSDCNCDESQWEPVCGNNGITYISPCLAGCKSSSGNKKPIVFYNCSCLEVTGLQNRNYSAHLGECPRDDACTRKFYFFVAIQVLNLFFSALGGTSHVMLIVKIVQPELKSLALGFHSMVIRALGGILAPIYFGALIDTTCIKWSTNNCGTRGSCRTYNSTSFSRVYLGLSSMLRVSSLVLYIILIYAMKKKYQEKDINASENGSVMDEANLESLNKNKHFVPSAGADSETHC
Protocol: cDNA for human NTCP [Hagenbuch et al., J Clin Invest 1994 March; 93(3): 1326-1331] was cut with EcoRV and HindI and the coding region ligated into pcDNA5/FRT (Invitrogen, Life-Technologies, Carlsbad, Calif.). CHO FlpIn cells (Invitrogen, Life-Technologies) were transfected with the resulting construct using Lipofectamine® 2000 (Invitrogen, Life-Technologies). Stably transfected cells were selected with 550 μg Hygromycin-B in HAM-F12 medium (Gibco, Invitrogen, Life-Technologies). Transfected cells were cloned with the limiting dilution method. […] To further characterize the cloned cells, immunofluorescence localization of NTCP using a polyclonal antibody against NTCP [Kullak-Ublick G et al., Gastroenterology 1997 October; 113(4):1295-1305] was performed as described by Huber R D et al. [Am J Physiol Cell Physiol 2007 February; 292(2):[…]-[…]]. CHO cells expressing OATP1B1, OATP1B3 and OATP2B1 were described previously [Treiber et al., DMD 35:1400-1407, 2007]. […] After complete solubilization, 1.5 ml was used to measure fluorescence in a Perkin-Elmer LS-5 luminescence-spectrometer set at λexe 486 nm (slit 10 nm) and λem 520 nm (slit 5 nm). Protein was determined with the bicinchoninic acid method using a kit from Interchim (Montfuçon, France). […]

OATP1B3 = target: T2, OATP1B3 (Homo sapiens, UniProt Q9NPD5); test: Uptake of CLF into CHO cells expressing OATP1B3; type: cell-based; set-up: Vmax of OATP1B3 mediated CLF transport: unit not given here
T2 construct: expressed in transfected cells; host or cells: CHO cells (stably transfected; Treiber et al. 2007)
T2 sequence (Q9NPD5 1-702): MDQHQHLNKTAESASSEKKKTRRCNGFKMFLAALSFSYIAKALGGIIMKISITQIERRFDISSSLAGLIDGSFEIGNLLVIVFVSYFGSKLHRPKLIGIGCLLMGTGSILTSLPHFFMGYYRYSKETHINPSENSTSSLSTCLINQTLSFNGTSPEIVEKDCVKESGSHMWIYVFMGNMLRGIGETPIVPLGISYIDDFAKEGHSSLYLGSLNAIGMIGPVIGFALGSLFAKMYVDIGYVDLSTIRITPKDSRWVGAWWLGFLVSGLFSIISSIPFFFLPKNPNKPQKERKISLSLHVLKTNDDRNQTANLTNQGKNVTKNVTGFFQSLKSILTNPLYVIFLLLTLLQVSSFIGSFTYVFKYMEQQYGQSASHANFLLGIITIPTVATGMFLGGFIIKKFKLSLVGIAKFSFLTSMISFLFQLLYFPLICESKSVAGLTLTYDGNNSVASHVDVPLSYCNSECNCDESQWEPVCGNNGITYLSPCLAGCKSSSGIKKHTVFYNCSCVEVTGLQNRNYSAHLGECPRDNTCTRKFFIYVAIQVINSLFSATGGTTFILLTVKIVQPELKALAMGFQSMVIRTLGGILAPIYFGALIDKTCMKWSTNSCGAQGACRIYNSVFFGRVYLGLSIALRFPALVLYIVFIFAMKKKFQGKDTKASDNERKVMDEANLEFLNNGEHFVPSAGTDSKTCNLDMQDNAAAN
Protocol: cDNA for human NTCP [Hagenbuch et al., J Clin Invest 1994 March; 93(3): 1326-1331] was cut with EcoRV and HindI and the coding region ligated into pcDNA5/FRT (Invitrogen, Life-Technologies, Carlsbad, Calif.). CHO FlpIn cells (Invitrogen, Life-Technologies) were transfected with the resulting construct using Lipofectamine® 2000 (Invitrogen, Life-Technologies). Stably transfected cells were selected with 550 μg Hygromycin-B in HAM-F12 medium (Gibco, Invitrogen, Life-Technologies). Transfected cells were cloned with the limiting dilution method. […] To further characterize the cloned cells, immunofluorescence localization of NTCP using a polyclonal antibody against NTCP [Kullak-Ublick G et al., Gastroenterology 1997 October; 113(4):1295-1305] was performed as described by Huber R D et al. [Am J Physiol Cell Physiol 2007 February; 292(2):[…]-[…]]. CHO cells expressing OATP1B1, OATP1B3 and OATP2B1 were described previously [Treiber et al., DMD 35:1400-1407, 2007]. For all transport experiments, cells grown on 3 cm culture dishes were cultured for 24 hours in media supplemented with 5 mmol/L sodium-butyrate to increase expression levels of transfected transporters [Palermo D P et al., J Biotechnol 1991 June; 19(1):35-47]. • Transport experiments with uptake of radioactively labeled substrates: These experiments were performed as described by Huber R D et al. […] Uptake was performed in the same buffers as for the radioactive substrates above. For visualization of CLF uptake, cells were immediately inspected with a Leica-DM-IRBE-inverted-microcope (Leica-Microsystems, Wetzlar, Germany) equipped with a Hamamatsu-ORKA-ER-camera (Hamamatsu-Photonoics, Japan). To determine uptake of CLF, cells were solubilized by the addition of 2 ml 1% (w/v) Triton-X-100. After complete solubilization, 1.5 ml was used to measure fluorescence in a Perkin-Elmer LS-5 luminescence-spectrometer set at λexe 486 nm (slit 10 nm) and λem 520 nm (slit 5 nm). Protein was determined with the bicinchoninic acid method using a kit from Interchim (Montfuçon, France). […]

Question: For `CC(CCC(=O)NC(CCCCNC(=S)Nc1ccc(-c2c3ccc(=O)cc-3oc3cc(O)ccc23)c(C(=O)O)c1)C(=O)O)C1CCC2C3C(O)CC4CC(O)CCC4(C)C3CC(O)C12C` (stereo not shown) [CLF, cholyl lysyl fluorescein], which “uptake of CLF into OATP1B1 cells” value (OATP1B1) is on record?
Answer: Its value is “very weak but consistent”.

Question: What about the “uptake of CLF into OATP1B3 expressing cells” value (OATP1B3; 1 μmol/L CLF, 1 or 5 minutes) of the same molecule?
Answer: The value was “clear uptake”.

Question: What about the “Vmax of OATP1B3 mediated CLF transport” value (OATP1B3; 45 seconds, mean of three independent determinations) of the same molecule?
Answer: The value was 213±42.

Question: What about the Km at 45 seconds (OATP1B3; human, CHO cells expressing OATP1B3, 45 seconds, mean of three independent determinations, read-out: Km of OATP1B3 mediated CLF transport) of the same molecule?
Answer: The Km at 45 seconds was 4.6 ± 2.7 µM.
